Columns and labels:
Format in all cases: cell-based
[1] = tested on: Breast Cancer (MCF-7) Cells; experiment: MTT cell viability assay, MCF-7; conditions: Homo sapiens
From the text: (§1) An MTT assay was used to determine the viability of the cells under examination in the desired medium. The mitochondrial dehydrogenase enzyme of the viable cells has a key role in the conversion of the yellow water-soluble substrate 3-(4,5-dimethylthiazol-2-y1)-2,5 diphenyl tetrazolium bromide (MTT) into a dark blue formazan product that is insoluble in water. The anticancer activity of the novel synthetic derivatives (4a–4k) was investigated through an MTT assay, with small modifications following the already published protocols against cancer cell lines (HeLa and MCF-7), using cisplatin as a reference drug. The cytotoxic effect of the tested compounds at 100 µM concentration was determined and represented as the percent growth inhibition compared with the untreated control cells. The first series comprised dihydropyridines analogous from 4a–4f with various substitution patterns on the phenyl ring. […] It is presumed that the 1-naphthyl containing compound 4c was locked in a configuration that is not favorable for an interaction with amino acid residues.
(§2) The anti-proliferative activity of the synthesized compounds was determined in MCF-7 and HeLa cells by an MTT cell viability assay, as described earlier. Briefly, we seeded 1 × 10^4 cells/well in a sterile 96-well culture microtiter plate and incubated them in a 5% CO2 incubator at 37 °C for 24 h. […] After 24 h, the cells were treated with 0.2 mg/mL of MTT reagent for 4 h. We added 10% acidified SDS (sodium dodecyl sulfate) solubilizing solution in propanol (1:1) to solubilize the formazan crystals. After 30 min at 37 °C, the plate was placed on a gyratory shaker to completely dissolve the formazan crystals. The plate was placed on a microplate reader to measure the optical density at 570 nm. The IC50 values were calculated from three independent experiments as previously reported.

[2] = tested on: MCF-7 cells; experiment: Cell cycle analysis by flow cytometry (PI); conditions: 24 h, IC50 and 2 × IC50
From the text: The progression of the cell cycle is started by a cascade of intracellular signaling pathways to drive progression from the G0 phase to the G1 phase. The mammalian cell cycle involves an overexpression of D-type cyclins during the progression from the G0/G1 to the S-phase and eventually contributes to the development of cancer. Progression is controlled by D-type cyclins after binding with cyclin-dependent kinases (CDKs) and negatively controlled by binding to CDK inhibitors. CDK4/6 is involved in the G1/S transition of the cell cycle and has an important role in breast cancer. Retinoblastoma tumor suppressor protein (pRb) is deactivated through a CDK4/6-mediated phosphorylation reaction. In fact, cyclin D1/CDK4/6 is a mandatory controller of pRb phosphorylation. This phosphorylation deactivates the pRb that leads to cell proliferation.
PI was used as a fluorescent probe by flow cytometry through small modifications in a published method. The difference in DNA content between the G0/G1, S (synthesis), and G2/M phases can be compared with a control sample. The assay was conducted by seeding 3 × 10^5 cells/well and incubating them for 24 h in a CO2 incubator at 37 °C. […] After harvesting the cells as directed, these cells were centrifuged at 3000 rpm for 5 min and washed with sterile PBS. […] The obtained results were analyzed by using the BD Accuri^TM C6 and GraphPad Prism 5.01 software.

[3] = tested on: HeLa cells; experiment: Fluorescence microscopy of cytotoxic and pro-apoptotic effect (PI and DAPI staining)
From the text: Change in the cellular morphology, initially characterized by cell shrinkage, chromatin condensation, and degradation of the nuclear and plasma membranes, was mostly observed in the programmed cell death. The propidium iodide (PI) staining agent is a fluorescent molecule that penetrates the cancerous cells through ruptured membranes and binds with DNA. Similarly, the subsequent image offers red nuclei contrary to the dark background that indicates the counts of dead cells. On the other hand, viable cells have an intact cell membrane that resists the penetration of the staining agent (PI). Herein, the anticancer potential of the highly functionalized small dihydropyridine scaffold 4d was noticed through the apoptosis induction pathway based on various mechanisms. […] The detachment of cells and appearance of yellow intense fluorescence images on the dark background specify the distribution of PI into the dying cells in a dose-reliant mode.
The apoptotic feature, particularly the condensation of nuclear material, was also observed through the fluorescence microscopic evaluation of compound 4d-treated HeLa cells using 4′,6-diamidino-2-phenylindole (DAPI) as a staining agent. […] The fluorescence intensity enhances many folds upon binding with DNA. The extent of damage in the compound-treated cells was easily measured through an increase in the fluorescence emission intensity. […]

[4] = tested on: Cervical Cancer (HeLa) Cells; experiment: MTT cell viability assay, HeLa; conditions: Homo sapiens, HeLa
From the text: as §1, §2

[5] = tested on: normal BHK-21 cells; experiment: MTT assay on normal cells; conditions: Mesocricetus auratus, rapidly growing non-cancerous cells

`N#CC1=C(N)N(Cc2ccccc2)C(N)=C(C#N)C1c1ccc2ccccc2c1` [Compound 4d, 2,6-Diamino-1-benzyl-4-(naphthalen-2-yl)-1,4-dihydropyridine-3,5-dicarbonitrile] was tested, and the inhibition at 100 µM ([1]; MCF7, 100 µM, 24 h) was 85.8%, the IC50 ([1]; MCF7, unit given, read-out: Breast Cancer (MCF-7) Cells IC50 Values ± SEM) was 38.7 ± 2.31 µM and the “phase of cell cycle arrest” value [2] was “G0/G1 phase”. The IC50 ([3]; Homo sapiens, read-out: IC50 (cytotoxic potential, fluorescence microscopy with PI staining)) was 28.3 µM, the “morphological change of treated cells (DAPI staining)” value ([3]; IC50 and 2 × IC50) was “cellular shrinkage and nuclear condensation in a dose-dependent manner” and the inhibition at 100 µM ([4]; 100 µM, 24 h) was 82.7%. The IC50 ([4]; unit given, read-out: Cervical Cancer (HeLa) Cells IC50 Values ± SEM) was 53.47 ± 0.5 µM and the IC50 [5] was 71.1 ± 3.18 µM.

Source: publication PMC9570995, “Design, Synthesis, and Biological Evaluation of Novel Dihydropyridine and Pyridine Analogs as Potent Human Tissue Nonspecific Alkaline Phosphatase Inhibitors with Anticancer Activity: ROS and DNA Damage-Induced Apoptosis” (Molecules, 2022)
